# Laboratory results taken from patent publication US20160287553A1, “TRANSLATION INHIBITORS IN HIGH-DOSE CHEMO- AND/OR HIGH-DOSE RADIOTHERAPY” (DEUTSCHES KREBSFORSCHUNGSZENTRUM, priority 2013, published 2016).
# Tested on: murine hematopoietic stem and progenitor cells (HSPCs)
# Assay: Etoposide-induced apoptosis in hematopoietic stem and progenitor cells
# Format: cell-based, mouse
# Conditions: HSPCs (FIG. 1c)
# Protocol: DNA fragmentation was determined by FACS.
# To perform lineage depletion, bone marrow cells were incubated on ice for 40 minutes with rat monoclonal antibodies against common epitopes expressed on mature blood and bone marrow cells (CD11b (M1/70), Gr-1 (RB6.8C5), CD4 (GK1.5), CD8a (53.6.7), Ter119 (Ter119) and B220 (RA3-6B2)). Subsequently, cells were washed and incubated for 15 minutes on ice with anti-rat IgG-coated Dynabeads (4.5 μm supermagnetic polystyrene beads, Invitrogen), 1 ml of beads per 3×10^8 bone marrow cells. Cells expressing lineage markers were depleted using a magnet and the remaining lineage-negative cells were isolated and washed. To provide optimal conditions for HSPCs in downstream experiments lineage-negative hematopoietic stem and progenitor-enriched cells were cultured in StemPro®-34 serum-free medium (Invitrogen, Darmstadt, Germany) supplemented with nutrient supplement (Invitrogen, Darmstadt, Germany) as well as recombinant TPO (50 ng/ml, (Peprotech, Hamburg, Germany)), SCF (50 ng/ml, (Peprotech, Hamburg, Germany)) and Flt3-ligand (50 ng/ml, (Peprotech, Hamburg, Germany)).
# Next, we asked whether Roc-A could also protect other normal primary cells from DNA damage-induced toxicity. […]
smiles,measurement,value
"COc1ccc([C@@]23Oc4cc(OC)cc(OC)c4[C@]2(O)[C@H](O)[C@H](C(=O)N(C)C)[C@H]3c2ccccc2)cc1 [Roc-A, (1R,2R,3S,3aR,8bS)-1,8b-dihydroxy-6,8-dimethoxy-3a-(4-methoxyphenyl)-N,N-dimethyl-3-phenyl-2,3-dihydro-1H-cyclopenta[b][1]benzofuran-2-carboxamide]",Protection against Etoposide-induced apoptosis,protected
